In US20200054633A1 (priority 2017, published 2020):
Read-outs that look alike come from different tables or passages of the source.

Key:
[1] = system: acute uncomplicated seasonal influenza A; test: Clinical study: nasal viral load by qRT-PCR (AUC, LS means, time to viral negativity); format: in vivo, human; conditions: for LS Means viral load (qRT-PCR) Day 3 / LS Means viral load (qRT-PCR) Day 4 / LS Means viral load (qRT-PCR) Day 6 / LS Means viral load (qRT-PCR) Day 8: log10 nasal viral load; for LS Means viral load (qRT-PCR) Day 3 / LS Means viral load (qRT-PCR) Day 4 / LS Means viral load (qRT-PCR) Day 6 / LS Means viral load (qRT-PCR) Day 8 / Change in AUC Viral Load (by qRT-PCR) Days 1 to 8 versus placebo / Time to influenza A negativity (qRT-PCR) Acceleration Factor: Full Analysis Set; for Time to influenza A negativity (qRT-PCR) Acceleration Factor: versus placebo, accelerated failure time model
Influenza A = format: in vivo, human; conditions: for Acceleration Factor, time to Influenza A negativity (TCID50), treatment versus placebo: accelerated failure time model, Full Analysis Set
[2] = system: acute uncomplicated seasonal influenza A; test: Clinical study: time to resolution of the 7 primary influenza symptoms (Flu-iiQ); conditions: for Median (95% CI): untitled table, presumably time to symptom resolution
Source text: This study followed a randomized, double-blind, placebo-controlled, parallel-group, multicenter design.
Key secondary efficacy variable: Time to resolution of influenza symptoms after initiation of study drug. Resolution of influenza symptoms was defined as the first Flu iiQ™ recording of a successive series of 3 recordings (over 4 scheduled successive analysis time points, 1 missing time point is allowed) in which all symptom scores for each of the 3 assessments were at most mild for all 7 primary influenza symptoms (cough, sore throat, headache, nasal stuffiness, feverishness or chills, muscle or joint pain, and fatigue).

O=C(O)[C@H]1C2CCC(CC2)[C@@H]1Nc1nc(-c2c[nH]c3ncc(F)cc23)ncc1F [Compound (1), Pimodivir]
LS Means viral load (qRT-PCR) Day 3 ([1]; Cmpd (1) 300 mg + OST placebo): 5.2
LS Means viral load (qRT-PCR) Day 4 ([1]; Cmpd (1) 300 mg + OST placebo): 3.9
LS Means viral load (qRT-PCR) Day 6 ([1]; Cmpd (1) 300 mg + OST placebo): 2.5
LS Means viral load (qRT-PCR) Day 8 ([1]; Cmpd (1) 300 mg + OST placebo): 1.4
LS Means viral load (qRT-PCR) Day 3 ([1]; Cmpd (1) 600 mg + OST placebo): 4.9
LS Means viral load (qRT-PCR) Day 4 ([1]; Cmpd (1) 600 mg + OST placebo): 3.8
LS Means viral load (qRT-PCR) Day 6 ([1]; Cmpd (1) 600 mg + OST placebo): 2.5
LS Means viral load (qRT-PCR) Day 8 ([1]; Cmpd (1) 600 mg + OST placebo): 1.0
reduction of time to viral negativity (qRT-PCR) versus placebo ([1]; Compound (1) 300 mg bid): 13%
Change in AUC Viral Load (by qRT-PCR) Days 1 to 8 versus placebo ([1]; Compound (1) 300 mg bid): −3.6 day*log10 copies/mL
reduction of time to viral negativity (qRT-PCR) versus placebo ([1]; Compound (1) 600 mg bid): 18%
Change in AUC Viral Load (by qRT-PCR) Days 1 to 8 versus placebo ([1]; Compound (1) 600 mg bid): −4.5 day*log10 copies/mL
effect on AUC of viral load (by qRT-PCR) over 7 days from start of dosing ([1]; Compound (1) treatment versus placebo): statistically significant and dose-dependent decrease in AUC of viral load
Time to influenza A negativity (qRT-PCR) Acceleration Factor ([1]; Cmpd (1) 300 mg + OST placebo): 0.87
Time to influenza A negativity (qRT-PCR) Acceleration Factor ([1]; Cmpd (1) 600 mg + OST placebo): 0.82
Acceleration Factor, time to Influenza A negativity (TCID50), treatment versus placebo (Influenza A; Cmpd (1) 300 mg + OST placebo): 0.71
Acceleration Factor, time to Influenza A negativity (TCID50), treatment versus placebo (Influenza A; Cmpd (1) 600 mg + OST placebo): 0.72
reduction in time to negative viral load (viral culture) versus placebo (Influenza A; Compound (1) 300 mg bid): 29%
reduction in time to negative viral load (viral culture) versus placebo (Influenza A; Compound (1) 600 mg bid): 28%
Median (95% CI) ([2]; Cmpd (1) 300 mg): 99.0 (71.5;
Median (95% CI) ([2]; Cmpd (1) 600 mg): 85.7 (55.3;
increase in time to resolution of the 7 primary influenza symptoms versus placebo ([2]; Compound (1) 300 mg bid, accelerated failure time model): 7%
